In patent US20170045529A1, “METHODS OF MEASURING ANTIGEN-SPECIFIC T CELLS” (ImmusanT, Inc., priority 2014, published 2017):
Non-standard residues stand in square brackets, D forms with d. pGlu = O=C1CC[C@@H](C(=O)O)N1

Key:
Type in all cases: cell-based, human
[1] = test system: whole blood; test: Whole blood IP-10 release to peptide pools and individual peptides, MAGPIX multiplex bead assay (Example 3); conditions: Table 10C, 10 uM
[2] = test system: whole blood; test: Whole blood IFN-γ release to peptide pools and individual peptides, MAGPIX multiplex bead assay (Example 3); conditions: 10 uM
[3] = test system: whole blood; test: Whole blood IL-2 release to peptide pools and individual peptides, MAGPIX multiplex bead assay (Example 3); conditions: 10 uM
[4] = Subject 1, day 0 since commencing oral challenge
[5] = Subject 1, day 6 since commencing oral challenge
[6] = Subject 2, day 0 since commencing oral challenge
[7] = Subject 2, day 6 since commencing oral challenge
[8] = Subject 6, day 0 since commencing oral challenge
[9] = Subject 6, day 6 since commencing oral challenge
[10] = Subject 7, day 0 since commencing oral challenge
[11] = Subject 7, day 6 since commencing oral challenge
[12] = Subject 1 (HLA-DQ 2.5, 8), day 0 of oral challenge
[13] = Subject 1 (HLA-DQ 2.5, 8), day 6 of oral challenge
[14] = Subject 2 (HLA-DQ 2.5, 8), day 0 of oral challenge
[15] = Subject 2 (HLA-DQ 2.5, 8), day 6 of oral challenge
[16] = Subject 6 (HLA-DQ 2.5), day 0 of oral challenge
[17] = Subject 6 (HLA-DQ 2.5), day 6 of oral challenge
[18] = Subject 7 (HLA-DQ 2.5, 8), day 0 of oral challenge
[19] = Subject 7 (HLA-DQ 2.5, 8), day 6 of oral challenge

Substance: (pE)LQPFPQPELPYPQPQ-NH2 ([pGlu]LQPFPQPELPYPQPQ-NH2; SMILES CC(C)C[C@H](NC(=O)[C@@H]1CCC(=O)N1)C(=O)N[C@@H](CCC(N)=O)C(=O)N1CCC[C@H]1C(=O)N[C@@H](Cc1ccccc1)C(=O)N1CCC[C@H]1C(=O)N[C@@H](CCC(N)=O)C(=O)N1CCC[C@H]1C(=O)N[C@@H](CCC(=O)O)C(=O)N[C@@H](CC(C)C)C(=O)N1CCC[C@H]1C(=O)N[C@@H](Cc1ccc(O)cc1)C(=O)N1CCC[C@H]1C(=O)N[C@@H](CCC(N)=O)C(=O)N1CCC[C@H]1C(=O)N[C@@H](CCC(N)=O)C(N)=O)
- Whole blood IP-10 release, Concentration [1, 4]: 201 pg/mL
- Whole blood IP-10 release, Fold-change over medium only [1, 4]: 0.76
- Whole blood IP-10 release, Concentration [1, 5]: 384 pg/mL
- Whole blood IP-10 release, Fold-change over medium only [1, 5]: 1.15
- Whole blood IP-10 release, Concentration [1, 6]: 320 pg/mL
- Whole blood IP-10 release, Fold-change over medium only [1, 6]: 1.20
- Whole blood IP-10 release, Concentration [1, 7]: 1844 pg/mL
- Whole blood IP-10 release, Fold-change over medium only [1, 7]: 5.90
- Whole blood IP-10 release, Concentration [1, 8]: 1616 pg/mL
- Whole blood IP-10 release, Fold-change over medium only [1, 8]: 5.83
- Whole blood IP-10 release, Concentration [1, 9]: 10000 pg/mL
- Whole blood IP-10 release, Fold-change over medium only [1, 9]: 49.76
- Whole blood IP-10 release, Concentration [1, 10]: 977 pg/mL
- Whole blood IP-10 release, Fold-change over medium only [1, 10]: 1.32
- Whole blood IP-10 release, Concentration [1, 11]: 3293 pg/mL
- Whole blood IP-10 release, Fold-change over medium only [1, 11]: 3.69
- Whole blood IFNg release, Concentration [2, 12]: 39 pg/mL
- Whole blood IFNg release, Fold-change over medium only [2, 12]: 0.71
- Whole blood IFNg release, Concentration [2, 13]: 55 pg/mL
- Whole blood IFNg release, Fold-change over medium only [2, 13]: 0.84
- Whole blood IFNg release, Concentration [2, 14]: 4.1 pg/mL
- Whole blood IFNg release, Fold-change over medium only [2, 14]: 1.06
- Whole blood IFNg release, Concentration [2, 15]: 13.9 pg/mL
- Whole blood IFNg release, Fold-change over medium only [2, 15]: 2.85
- Whole blood IFNg release, Concentration [2, 16]: 102 pg/mL
- Whole blood IFNg release, Fold-change over medium only [2, 16]: 1.05
- Whole blood IFNg release, Concentration [2, 17]: 200 pg/mL
- Whole blood IFNg release, Fold-change over medium only [2, 17]: 2.03
- Whole blood IFNg release, Concentration [2, 18]: 407 pg/mL
- Whole blood IFNg release, Fold-change over medium only [2, 18]: 1.71
- Whole blood IFNg release, Concentration [2, 19]: 194 pg/mL
- Whole blood IFNg release, Fold-change over medium only [2, 19]: 1.29
- Whole blood IL-2 release, Concentration [3, 12]: 3.2 pg/mL
- Whole blood IL-2 release, Fold-change over medium only [3, 12]: 1.00
- Whole blood IL-2 release, Concentration [3, 13]: 3.2 pg/mL
- Whole blood IL-2 release, Fold-change over medium only [3, 13]: 1.00
- Whole blood IL-2 release, Concentration [3, 14]: 3.2 pg/mL
- Whole blood IL-2 release, Fold-change over medium only [3, 14]: 1.00
- Whole blood IL-2 release, Concentration [3, 15]: 12.2 pg/mL
- Whole blood IL-2 release, Fold-change over medium only [3, 15]: 3.82
- Whole blood IL-2 release, Concentration [3, 16]: 12.5 pg/mL
- Whole blood IL-2 release, Fold-change over medium only [3, 16]: 2.52
- Whole blood IL-2 release, Concentration [3, 17]: 88.5 pg/mL
- Whole blood IL-2 release, Fold-change over medium only [3, 17]: 20.88
- Whole blood IL-2 release, Concentration [3, 18]: 144.4 pg/mL
- Whole blood IL-2 release, Fold-change over medium only [3, 18]: 2.30
- Whole blood IL-2 release, Concentration [3, 19]: 71.2 pg/mL
- Whole blood IL-2 release, Fold-change over medium only [3, 19]: 1.69

Substance: (pE)PEQPIPEQPQPYPQQ-NH2 ([pGlu]PEQPIPEQPQPYPQQ-NH2; SMILES CC[C@H](C)[C@H](NC(=O)[C@@H]1CCCN1C(=O)[C@H](CCC(N)=O)NC(=O)[C@H](CCC(=O)O)NC(=O)[C@@H]1CCCN1C(=O)[C@@H]1CCC(=O)N1)C(=O)N1CCC[C@H]1C(=O)N[C@@H](CCC(=O)O)C(=O)N[C@@H](CCC(N)=O)C(=O)N1CCC[C@H]1C(=O)N[C@@H](CCC(N)=O)C(=O)N1CCC[C@H]1C(=O)N[C@@H](Cc1ccc(O)cc1)C(=O)N1CCC[C@H]1C(=O)N[C@@H](CCC(N)=O)C(=O)N[C@@H](CCC(N)=O)C(N)=O)
- Whole blood IP-10 release, Concentration [1, 4]: 235 pg/mL
- Whole blood IP-10 release, Fold-change over medium only [1, 4]: 0.89
- Whole blood IP-10 release, Concentration [1, 5]: 325 pg/mL
- Whole blood IP-10 release, Fold-change over medium only [1, 5]: 0.97
- Whole blood IP-10 release, Concentration [1, 6]: 336 pg/mL
- Whole blood IP-10 release, Fold-change over medium only [1, 6]: 1.26
- Whole blood IP-10 release, Concentration [1, 7]: 1269 pg/mL
- Whole blood IP-10 release, Fold-change over medium only [1, 7]: 4.06
- Whole blood IP-10 release, Concentration [1, 8]: 3409 pg/mL
- Whole blood IP-10 release, Fold-change over medium only [1, 8]: 12.30
- Whole blood IP-10 release, Concentration [1, 9]: 10000 pg/mL
- Whole blood IP-10 release, Fold-change over medium only [1, 9]: 49.76
- Whole blood IP-10 release, Concentration [1, 10]: 713 pg/mL
- Whole blood IP-10 release, Fold-change over medium only [1, 10]: 0.96
- Whole blood IP-10 release, Concentration [1, 11]: 2549 pg/mL
- Whole blood IP-10 release, Fold-change over medium only [1, 11]: 2.86
- Whole blood IFNg release, Concentration [2, 12]: 42 pg/mL
- Whole blood IFNg release, Fold-change over medium only [2, 12]: 0.76
- Whole blood IFNg release, Concentration [2, 13]: 72 pg/mL
- Whole blood IFNg release, Fold-change over medium only [2, 13]: 1.09
- Whole blood IFNg release, Concentration [2, 14]: 3.3 pg/mL
- Whole blood IFNg release, Fold-change over medium only [2, 14]: 0.85
- Whole blood IFNg release, Concentration [2, 15]: 8.6 pg/mL
- Whole blood IFNg release, Fold-change over medium only [2, 15]: 1.77
- Whole blood IFNg release, Concentration [2, 16]: 96 pg/mL
- Whole blood IFNg release, Fold-change over medium only [2, 16]: 0.99
- Whole blood IFNg release, Concentration [2, 17]: 278 pg/mL
- Whole blood IFNg release, Fold-change over medium only [2, 17]: 2.84
- Whole blood IFNg release, Concentration [2, 18]: 170 pg/mL
- Whole blood IFNg release, Fold-change over medium only [2, 18]: 0.71
- Whole blood IFNg release, Concentration [2, 19]: 102 pg/mL
- Whole blood IFNg release, Fold-change over medium only [2, 19]: 0.68
- Whole blood IL-2 release, Concentration [3, 12]: 3.2 pg/mL
- Whole blood IL-2 release, Fold-change over medium only [3, 12]: 1.00
- Whole blood IL-2 release, Concentration [3, 13]: 3.2 pg/mL
- Whole blood IL-2 release, Fold-change over medium only [3, 13]: 1.00
- Whole blood IL-2 release, Concentration [3, 14]: 3.2 pg/mL
- Whole blood IL-2 release, Fold-change over medium only [3, 14]: 1.00
- Whole blood IL-2 release, Concentration [3, 15]: 22.4 pg/mL
- Whole blood IL-2 release, Fold-change over medium only [3, 15]: 7.00
- Whole blood IL-2 release, Concentration [3, 16]: 23.3 pg/mL
- Whole blood IL-2 release, Fold-change over medium only [3, 16]: 4.71
- Whole blood IL-2 release, Concentration [3, 17]: 134.3 pg/mL
- Whole blood IL-2 release, Fold-change over medium only [3, 17]: 31.67
- Whole blood IL-2 release, Concentration [3, 18]: 106.1 pg/mL
- Whole blood IL-2 release, Fold-change over medium only [3, 18]: 1.69
- Whole blood IL-2 release, Concentration [3, 19]: 27.8 pg/mL
- Whole blood IL-2 release, Fold-change over medium only [3, 19]: 0.66

Substance: (pE)QPFPQPEQPFPWQP-NH2 ([pGlu]QPFPQPEQPFPWQP-NH2; SMILES NC(=O)CC[C@H](NC(=O)[C@H](Cc1c[nH]c2ccccc12)NC(=O)[C@@H]1CCCN1C(=O)[C@H](Cc1ccccc1)NC(=O)[C@@H]1CCCN1C(=O)[C@H](CCC(N)=O)NC(=O)[C@H](CCC(=O)O)NC(=O)[C@@H]1CCCN1C(=O)[C@H](CCC(N)=O)NC(=O)[C@@H]1CCCN1C(=O)[C@H](Cc1ccccc1)NC(=O)[C@@H]1CCCN1C(=O)[C@H](CCC(N)=O)NC(=O)[C@@H]1CCC(=O)N1)C(=O)N1CCC[C@H]1C(N)=O)
- Whole blood IP-10 release, Concentration [1, 4]: 218 pg/mL
- Whole blood IP-10 release, Fold-change over medium only [1, 4]: 0.82
- Whole blood IP-10 release, Concentration [1, 5]: 501 pg/mL
- Whole blood IP-10 release, Fold-change over medium only [1, 5]: 1.49
- Whole blood IP-10 release, Concentration [1, 6]: 376 pg/mL
- Whole blood IP-10 release, Fold-change over medium only [1, 6]: 1.42
- Whole blood IP-10 release, Concentration [1, 7]: 1140 pg/mL
- Whole blood IP-10 release, Fold-change over medium only [1, 7]: 3.65
- Whole blood IP-10 release, Concentration [1, 8]: 1934 pg/mL
- Whole blood IP-10 release, Fold-change over medium only [1, 8]: 6.98
- Whole blood IP-10 release, Concentration [1, 9]: 10000 pg/mL
- Whole blood IP-10 release, Fold-change over medium only [1, 9]: 49.76
- Whole blood IP-10 release, Concentration [1, 10]: 900 pg/mL
- Whole blood IP-10 release, Fold-change over medium only [1, 10]: 1.21
- Whole blood IP-10 release, Concentration [1, 11]: 10000 pg/mL
- Whole blood IP-10 release, Fold-change over medium only [1, 11]: 11.21
- Whole blood IFNg release, Concentration [2, 12]: 60 pg/mL
- Whole blood IFNg release, Fold-change over medium only [2, 12]: 1.09
- Whole blood IFNg release, Concentration [2, 13]: 62 pg/mL
- Whole blood IFNg release, Fold-change over medium only [2, 13]: 0.95
- Whole blood IFNg release, Concentration [2, 14]: 4.5 pg/mL
- Whole blood IFNg release, Fold-change over medium only [2, 14]: 1.19
- Whole blood IFNg release, Concentration [2, 15]: 6.4 pg/mL
- Whole blood IFNg release, Fold-change over medium only [2, 15]: 1.32
- Whole blood IFNg release, Concentration [2, 16]: 94 pg/mL
- Whole blood IFNg release, Fold-change over medium only [2, 16]: 0.98
- Whole blood IFNg release, Concentration [2, 17]: 258 pg/mL
- Whole blood IFNg release, Fold-change over medium only [2, 17]: 2.63
- Whole blood IFNg release, Concentration [2, 18]: 158 pg/mL
- Whole blood IFNg release, Fold-change over medium only [2, 18]: 0.66
- Whole blood IFNg release, Concentration [2, 19]: 150 pg/mL
- Whole blood IFNg release, Fold-change over medium only [2, 19]: 1.00
- Whole blood IL-2 release, Concentration [3, 12]: 3.2 pg/mL
- Whole blood IL-2 release, Fold-change over medium only [3, 12]: 1.00
- Whole blood IL-2 release, Concentration [3, 13]: 3.2 pg/mL
- Whole blood IL-2 release, Fold-change over medium only [3, 13]: 1.00
- Whole blood IL-2 release, Concentration [3, 14]: 3.2 pg/mL
- Whole blood IL-2 release, Fold-change over medium only [3, 14]: 1.00
- Whole blood IL-2 release, Concentration [3, 15]: 5.2 pg/mL
- Whole blood IL-2 release, Fold-change over medium only [3, 15]: 1.61
- Whole blood IL-2 release, Concentration [3, 16]: 17.9 pg/mL
- Whole blood IL-2 release, Fold-change over medium only [3, 16]: 3.62
- Whole blood IL-2 release, Concentration [3, 17]: 115.9 pg/mL
- Whole blood IL-2 release, Fold-change over medium only [3, 17]: 27.33
- Whole blood IL-2 release, Concentration [3, 18]: 41.4 pg/mL
- Whole blood IL-2 release, Fold-change over medium only [3, 18]: 0.66
- Whole blood IL-2 release, Concentration [3, 19]: 55.1 pg/mL
- Whole blood IL-2 release, Fold-change over medium only [3, 19]: 1.31
